According to patent publication US10597388B2, “Pyridazinone herbicides” (FMC CORPORATION, priority 2014, dated 2020):

Assays:
Test in all cases: Test D controlled growth environment herbicide test, pre- and postemergence
Assay type in all cases: in vivo
[1] = system: wheat, spring (spring wheat, Triticum aestivum)
Outline: (§1)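 Rating is visual, 0–100 scale (100 = complete control), made against untreated plants 14–21 d after treatment in controlled growth conditions. Postemergence sprays went onto 1- to 4-leaf plants in peat medium; preemergence sprays onto silt loam after sowing; formulation included a surfactant.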

[2] = system: field poppy (Papaver rhoeas)
Outline: as §1

[3] = system: radish, wild (wild radish, Raphanus raphanistrum)
Outline: as §1

[4] = system: ryegrass, Italian (Italian ryegrass, Lolium multiflorum)
Outline: as §1

[5] = system: speedwell (bird's-eye speedwell, Veronica persica)
Outline: as §1

[6] = system: oat, wild (wild oat, Avena fatua)
Outline: as §1

[7] = system: barley, spring (spring barley, Hordeum vulgare)
Outline: as §1

[8] = system: buckwheat, wild (wild buckwheat, Polygonum convolvulus)
Outline: as §1

[9] = system: deadnettle (henbit deadnettle, Lamium amplexicaule)
Outline: as §1

[10] = system: windgrass (Apera spica-venti)
Outline: as §1

[11] = system: oilseed rape (Brassica napus)
Outline: as §1

[12] = system: canarygrass (Phalaris minor)
Outline: as §1

[13] = Postemergence, 31 g ai/ha, scale 0 to 100 (0 no effect, 100 complete control)
[14] = Postemergence, 125 g ai/ha, visual rating on scale 0 (no effect) to 100 (complete control), 14 to 21 d
[15] = Postemergence, 250 g ai/ha, scale 0 to 100 (0 no effect, 100 complete control)
[16] = Preemergence, 62 g ai/ha, scale 0 to 100 (0 no effect, 100 complete control)
[17] = Preemergence, 125 g ai/ha, scale 0 to 100 (0 no effect, 100 complete control)
[18] = Preemergence, 250 g ai/ha, scale 0 to 100, 0 no effect, 100 complete control
[19] = postemergence, 62 g ai/ha, scale 0 to 100, 0 no effect, 100 complete control

CCc1sc2c(C)cc(C)cc2c1-c1c(O)c(C)nn(C)c1=O [Compound 57]
10: Plant response rating, Wheat, Spring [1, 14] | Plant response rating, Wheat, Spring [1, 15] | Plant response rating, Wheat, Spring [1, 18] | Plant response rating, Wheat, Spring [1, 19] | Plant response rating, Radish, Wild [3, 16] | Barley, Spring plant response rating [7, 13] | Plant response rating, Barley, Spring [7, 14] | Plant response rating, Barley, Spring [7, 15] | Plant response rating, Barley, Spring [7, 16] | Plant response rating, Barley, Spring [7, 17] | Plant response rating, Barley, Spring [7, 18] | Plant response rating, Barley, Spring [7, 19] | Plant response rating, Buckwheat, Wild [8, 16] | Plant response rating, Buckwheat, Wild [8, 17] | Windgrass plant response rating [10, 13] | Plant response rating, Windgrass [10, 14] | Plant response rating, Windgrass [10, 19] | Plant response rating, Canarygrass [12, 16]
80: Plant response rating, Ryegrass, Italian [4, 17] | Buckwheat, Wild plant response rating [8, 13] | Plant response rating, Windgrass [10, 18]
20: Plant response rating, Deadnettle [9, 16] | Plant response rating (scale of 0 to 100), Windgrass ([10]; Preemergence, 31 g ai/ha) | Oilseed Rape plant response rating [11, 13]
35: Plant response rating, Windgrass [10, 16]
90: Plant response rating, Radish, Wild [3, 15] | Plant response rating, Speedwell [5, 16] | Plant response rating, Deadnettle [9, 19]
50: Plant response rating, Ryegrass, Italian [4, 19] | Plant response rating, Oat, Wild [6, 17]
25: Plant response rating, Radish, Wild [3, 17] | Ryegrass, Italian plant response rating [4, 13] | Plant response rating, Speedwell [5, 14] | Plant response rating (scale of 0 to 100), Speedwell ([5]; Preemergence, 31 g ai/ha) | Plant response rating, Oat, Wild [6, 19] | Plant response rating, Deadnettle [9, 17] | Plant response rating, Oilseed Rape [11, 18] | Plant response rating, Oilseed Rape [11, 19] | Plant response rating, Canarygrass [12, 15]
40: Radish, Wild plant response rating [3, 13]
15: Plant response rating, Speedwell [5, 19] | Oat, Wild plant response rating [6, 13] | Plant response rating (scale of 0 to 100), Oat, Wild ([6]; Preemergence, 31 g ai/ha) | Plant response rating, Windgrass [10, 15] | Plant response rating, Canarygrass [12, 14]
95: Plant response rating, Ryegrass, Italian [4, 18]
0: Wheat, Spring plant response rating [1, 13] | Plant response rating (scale of 0 to 100), Radish, Wild ([3]; Preemergence, 31 g ai/ha) | Plant response rating (scale of 0 to 100), Buckwheat, Wild ([8]; Preemergence, 31 g ai/ha) | Plant response rating (scale of 0 to 100), Deadnettle ([9]; Preemergence, 31 g ai/ha) | Plant response rating (scale of 0 to 100), Oilseed Rape ([11]; Preemergence, 31 g ai/ha) | Plant response rating, Oilseed Rape [11, 16] | Plant response rating, Oilseed Rape [11, 17] | Plant response rating (scale of 0 to 100), Canarygrass ([12]; Preemergence, 31 g ai/ha)
75: Plant response rating, Ryegrass, Italian [4, 14] | Plant response rating, Ryegrass, Italian [4, 16]
5: Plant response rating (scale of 0 to 100), Wheat, Spring ([1]; Preemergence, 31 g ai/ha) | Plant response rating, Wheat, Spring [1, 16] | Plant response rating, Wheat, Spring [1, 17] | Plant response rating (scale of 0 to 100), Barley, Spring ([7]; Preemergence, 31 g ai/ha) | Canarygrass plant response rating [12, 13] | Plant response rating, Canarygrass [12, 19]
100: Field Poppy plant response rating [2, 13] | Plant response rating, Field Poppy [2, 14] | Plant response rating, Field Poppy [2, 15] | Plant response rating (scale of 0 to 100), Field Poppy ([2]; Preemergence, 31 g ai/ha) | Plant response rating, Field Poppy [2, 16] | Plant response rating, Field Poppy [2, 17] | Plant response rating, Field Poppy [2, 18] | Plant response rating, Field Poppy [2, 19] | Plant response rating, Radish, Wild [3, 14] | Plant response rating, Radish, Wild [3, 18] | Plant response rating, Radish, Wild [3, 19] | Speedwell plant response rating [5, 13] | Plant response rating, Speedwell [5, 15] | Plant response rating, Speedwell [5, 17] | Plant response rating, Speedwell [5, 18] | Plant response rating, Buckwheat, Wild [8, 15] | Plant response rating, Buckwheat, Wild [8, 18] | Plant response rating, Deadnettle [9, 15]
45: Plant response rating, Deadnettle [9, 18]
70: Deadnettle plant response rating [9, 13]
30: Plant response rating, Oat, Wild [6, 16]
65: Plant response rating, Oat, Wild [6, 14] | Plant response rating, Windgrass [10, 17] | Plant response rating, Oilseed Rape [11, 14] | Plant response rating, Oilseed Rape [11, 15] | Plant response rating, Canarygrass [12, 18]
85: Plant response rating, Ryegrass, Italian [4, 15] | Plant response rating, Oat, Wild [6, 15] | Plant response rating, Buckwheat, Wild [8, 14] | Plant response rating, Buckwheat, Wild [8, 19] | Plant response rating, Deadnettle [9, 14]
60: Plant response rating, Oat, Wild [6, 18]
55: Plant response rating (scale of 0 to 100), Ryegrass, Italian ([4]; Preemergence, 31 g ai/ha) | Plant response rating, Canarygrass [12, 17]
